Source: patent publication US11053204B2, “Pyrimidinyloxy benzene derivatives as herbicides” (FMC Corporation, priority 2015, dated 2021)

Experiments:
Format in all cases: in vivo
rice (Oryza sativa) = assay: Test B flooded paddy test, plant response rating; conditions: 250 g ai/ha; Flood; scale of 0 to 100 where 0 is no effect and 100 is complete control; 13 to 15 days
Method in brief: (§1)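 Flooded 3 cm over soil; compound into paddy water; depth kept constant. Greenhouse 13–15 d.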

[1] = test system: sedge, umbrella (small-flower umbrella sedge, Cyperus difformis); assay: Test B flooded paddy test, plant response rating; conditions: 250 g ai/ha; Flood; scale of 0 to 100 where 0 is no effect and 100 is complete control; 13 to 15 days
Method in brief: as §1

[2] = test system: barnyardgrass (Echinochloa crus-galli); assay: Test B flooded paddy test, plant response rating; conditions: 250 g ai/ha; Flood; scale of 0 to 100 where 0 is no effect and 100 is complete control; 13 to 15 days
Method in brief: as §1

[3] = test system: ducksalad (Heteranthera limosa); assay: Test B flooded paddy test, plant response rating; conditions: 250 g ai/ha; Flood; scale of 0 to 100 where 0 is no effect and 100 is complete control; 13 to 15 days
Method in brief: as §1

[4] = test system: blackgrass (Alopecurus myosuroides); assay: Test A postemergence, visual injury rating
Method in brief: (§2)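 Visual injury scored 0–100 (100 = complete control) against untreated controls about 10 days after treatment in a greenhouse. Test chemicals, formulated with surfactant in non-phytotoxic solvent, were sprayed on soil preemergence or on 2-10 cm, one- to two-leaf plants postemergence.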

[5] = test system: wheat (Triticum aestivum); assay: Test A postemergence, visual injury rating
Method in brief: as §2

[6] = test system: galium (catchweed bedstraw, Galium aparine); assay: Test A postemergence, visual injury rating
Method in brief: as §2

[7] = test system: ragweed (common ragweed, Ambrosia elatior); assay: Test A postemergence, visual injury rating
Method in brief: as §2

kochia (Kochia scoparia) [8] = assay: Test A postemergence, visual injury rating
Method in brief: as §2

[9] = test system: Italian ryegrass (Lolium multiflorum); assay: Test A postemergence, visual injury rating
Method in brief: as §2

[10] = test system: giant foxtail (Setaria faberii); assay: Test A postemergence, visual injury rating
Method in brief: as §2

[11] = test system: barnyardgrass (Echinochloa crus-galli); assay: Test A postemergence, visual injury rating; conditions: 0 is no effect, 100 is complete control; for Barnyardgrass plant response rating: 0 to 100 scale, approximately 10 days
Method in brief: as §2

[12] = test system: pigweed (Amaranthus retroflexus); assay: Test A postemergence, visual injury rating
Method in brief: as §2

corn (Zea mays) = assay: Test A postemergence, visual injury rating
Method in brief: as §2

[13] = test system: ragweed (common ragweed, Ambrosia elatior); assay: Test A preemergence, visual injury rating
Method in brief: as §2

kochia (Kochia scoparia) [14] = assay: Test A preemergence, visual injury rating
Method in brief: as §2

[15] = test system: Italian ryegrass (Lolium multiflorum); assay: Test A preemergence, visual injury rating
Method in brief: as §2

[16] = test system: giant foxtail (Setaria faberii); assay: Test A preemergence, visual injury rating
Method in brief: as §2

[17] = test system: barnyardgrass (Echinochloa crus-galli); assay: Test A preemergence, visual injury rating
Method in brief: as §2

[18] = test system: pigweed (Amaranthus retroflexus); assay: Test A preemergence, visual injury rating
Method in brief: as §2

[19] = 125 g ai/ha, 0 to 100 scale, 0 is no effect, 100 is complete control, approximately 10 days
[20] = 500 g ai/ha, 0 is no effect, 100 is complete control
[21] = 125 g ai/ha, 0 to 100 scale (0 no effect, 100 complete control)
[22] = 500 g ai/ha, 0 to 100 scale (0 no effect, 100 complete control)
[23] = 31 g ai/ha, 0 to 100 scale (0 no effect, 100 complete control)
[24] = 31 g ai/ha, 0 to 100 scale, 0 no effect, 100 complete control

| SMILES | Plant response rating, Rice (rice (Oryza sativa)) | Plant response rating, Sedge, Umbrella [1] | Plant response rating, Barnyardgrass [2] | Plant response rating, Ducksalad [3] | Blackgrass plant response rating [4, 19] | Wheat plant response rating [5, 19] | Galium plant response rating [6, 19] | Ragweed plant response rating [7, 19] | Kochia plant response rating (kochia (Kochia scoparia) [8]; [19]) | Ryegrass, Italian plant response rating [9, 19] | Foxtail, Giant plant response rating [10, 19] | Barnyardgrass plant response rating ([11]; 125 g ai/ha) | Pigweed plant response rating [12, 19] | Corn plant response rating (corn (Zea mays); [19]) | Plant response rating, Ragweed [13, 21] | Plant response rating, Kochia (kochia (Kochia scoparia) [14]; [21]) | Plant response rating, Ryegrass, Italian [15, 21] | Plant response rating, Foxtail, Giant [16, 21] | Plant response rating, Barnyardgrass [17, 21] | Plant response rating, Pigweed [18, 21] | further results |
| --- | --- | --- | --- | --- | --- | --- | --- | --- | --- | --- | --- | --- | --- | --- | --- | --- | --- | --- | --- | --- | --- |
| O=Cc1c(Cl)cccc1Oc1ncc(Cl)cn1 [Compound 139] | 0 | 0 | 0 | 30 | 0 | 0 | 0 | 0 | 0 | 0 | 0 | 0 | 0 | 0 | 50 | 0 | 0 | 0 | 0 | 0 | Blackgrass plant response rating (0 to 100 scale) [4, 20]: 0; Wheat plant response rating (0 to 100 scale) [5, 20]: 0; Galium plant response rating (0 to 100 scale) [6, 20]: 0; Ragweed plant response rating (0 to 100 scale) [7, 20]: 0; Kochia plant response rating (0 to 100 scale) (kochia (Kochia scoparia) [8]; [20]): 0; Ryegrass, Italian plant response rating (0 to 100 scale) [9, 20]: 20; Foxtail, Giant plant response rating (0 to 100 scale) [10, 20]: 0; Barnyardgrass plant response rating (0 to 100 scale) ([11]; 500 g ai/ha): 0; Pigweed plant response rating (0 to 100 scale) [12, 20]: 0; Corn plant response rating (0 to 100 scale) (corn (Zea mays); [20]): 0; Ragweed plant response rating [13, 22]: 0; Kochia plant response rating (kochia (Kochia scoparia) [14]; [22]): 0; Ryegrass, Italian plant response rating [15, 22]: 0; Foxtail, Giant plant response rating [16, 22]: 0; Barnyardgrass plant response rating [17, 22]: 0; Pigweed plant response rating [18, 22]: 0 |
| N#CCc1ccccc1Oc1ncc(Cl)cn1 [Compound 140] | 0 | 0 | 0 | 0 | 0 | 0 | 0 | 0 | 30 | 0 | 0 | 0 | 20 | 0 | 0 | 40 | 10 | 0 | 0 | 10 | Blackgrass plant response rating [4, 23]: 0; Wheat plant response rating [5, 23]: 0; Galium plant response rating [6, 23]: 0; Ragweed plant response rating [7, 23]: 0; Kochia plant response rating (kochia (Kochia scoparia) [8]; [23]): 0; Ryegrass, Italian plant response rating [9, 23]: 0; Foxtail, Giant plant response rating [10, 23]: 0; Barnyardgrass plant response rating ([11]; 31 g ai/ha): 0; Pigweed plant response rating [12, 23]: 0; Corn plant response rating (corn (Zea mays); [23]): 0; Plant response rating, Ragweed [13, 24]: 0; Plant response rating, Kochia (kochia (Kochia scoparia) [14]; [24]): 0; Plant response rating, Ryegrass, Italian [15, 24]: 10; Plant response rating, Foxtail, Giant [16, 24]: 0; Plant response rating, Barnyardgrass [17, 24]: 0; Plant response rating, Pigweed [18, 24]: 0 |
| CCCCCC(C#N)c1ccccc1Oc1ncc(Cl)cn1 (stereo not drawn) [Compound 141, 2-[(5-chloro-2-pyrmidinyl)oxy]-α-pentylbenzeneacetonitrile] | 10 | 50 | 20 | 70 | 10 | 0 | 60 | 20 | 60 | 10 | 40 | 20 | 70 | 20 | 30 | 20 | 10 | 100 | 60 | 90 | Blackgrass plant response rating [4, 23]: 0; Wheat plant response rating [5, 23]: 0; Galium plant response rating [6, 23]: 40; Ragweed plant response rating [7, 23]: 0; Kochia plant response rating (kochia (Kochia scoparia) [8]; [23]): 50; Ryegrass, Italian plant response rating [9, 23]: 0; Foxtail, Giant plant response rating [10, 23]: 20; Barnyardgrass plant response rating ([11]; 31 g ai/ha): 10; Pigweed plant response rating [12, 23]: 40; Corn plant response rating (corn (Zea mays); [23]): 10; Plant response rating, Ragweed [13, 24]: 0; Plant response rating, Kochia (kochia (Kochia scoparia) [14]; [24]): 10; Plant response rating, Ryegrass, Italian [15, 24]: 0; Plant response rating, Foxtail, Giant [16, 24]: 10; Plant response rating, Barnyardgrass [17, 24]: 0; Plant response rating, Pigweed [18, 24]: 0 |
| N#Cc1cccc(Oc2ncc(Cl)cn2)c1C(=O)CCC(F)(F)F [Compound 142] | 0 | 0 | 0 | 0 | 0 | 0 | 20 | 20 | 10 | 0 | 0 | 0 | 20 | 10 | 0 | 0 | 0 | 0 | 0 | 0 | Blackgrass plant response rating [4, 23]: 0; Wheat plant response rating [5, 23]: 0; Galium plant response rating [6, 23]: 0; Ragweed plant response rating [7, 23]: 0; Kochia plant response rating (kochia (Kochia scoparia) [8]; [23]): 0; Ryegrass, Italian plant response rating [9, 23]: 0; Foxtail, Giant plant response rating [10, 23]: 0; Barnyardgrass plant response rating ([11]; 31 g ai/ha): 0; Pigweed plant response rating [12, 23]: 0; Corn plant response rating (corn (Zea mays); [23]): 0; Plant response rating, Ragweed [13, 24]: 0; Plant response rating, Kochia (kochia (Kochia scoparia) [14]; [24]): 0; Plant response rating, Ryegrass, Italian [15, 24]: 0; Plant response rating, Foxtail, Giant [16, 24]: 0; Plant response rating, Barnyardgrass [17, 24]: 0; Plant response rating, Pigweed [18, 24]: 0 |
